The values below come from ChEMBL document CHEMBL2086226, “Synthesis of paclitaxel-BGL conjugates” (Bioorg Med Chem, 2012).

The source made the active and inactive calls. The rule behind the calls is not given here.

Data set [1] can be described thus: Octanol-water partition coefficient, log P of the compound. In kind it is physicochemical.
Data set [2] has as its system A549. The data set can be described thus: Antitumor activity against human A549 cells xenografted in nude BALB/c mouse assessed as tumor growth inhibition at 3.51 umol/kg, ip administered on day 1, 4 and 7 post-inoculation measured up to 14 days. It counts as functional, organism-based.

Usually logP stands for the decadic logarithm of the partition coefficient of the neutral form, usually between octanol and water. Lower therefore signals lower lipophilicity. In data set [1], `CC(=O)O[C@H]1C(=O)[C@]2(C)[C@@H](OC(=O)CCC(=O)OC(COC(CO)CO)COC(CO)CO)C[C@H]3OC[C@@]3(OC(C)=O)[C@H]2[C@H](OC(=O)c2ccccc2)[C@]2(O)C[C@H](OC(=O)[C@H](O)[C@@H](NC(=O)c3ccccc3)c3ccccc3)C(C)=C1C2(C)C` had a logP of 1.99.
On to `CC(=O)O[C@H]1C(=O)[C@@]2(C)[C@H]([C@H](OC(=O)c3ccccc3)[C@]3(O)C[C@H](OC(=O)[C@H](O)[C@@H](NC(=O)CCC(=O)OC(COC(CO)CO)COC(CO)CO)c4ccccc4)C(C)=C1C3(C)C)[C@]1(OC(C)=O)CO[C@@H]1C[C@@H]2O`, for which, in data set [2], the “growth inhibition (GI)” value is “Active”. The same molecule had a logP in data set [1] of 1.46.
Turning to `CC(=O)O[C@H]1C(=O)[C@@]2(C)[C@H]([C@H](OC(=O)c3ccccc3)[C@]3(O)C[C@H](OC(=O)[C@H](OC(=O)CCC(=O)OC(COC(CO)CO)COC(CO)CO)[C@@H](NC(=O)c4ccccc4)c4ccccc4)C(C)=C1C3(C)C)[C@]1(OC(C)=O)CO[C@@H]1C[C@@H]2O`, in data set [1], the logP was 2.26.
`CC(=O)O[C@H]1C(=O)[C@@]2(C)[C@H]([C@H](OC(=O)c3ccccc3)[C@]3(O)C[C@H](OC(=O)[C@H](O)[C@@H](NC(=O)c4ccccc4)c4ccccc4)C(C)=C1C3(C)C)[C@]1(OC(C)=O)CO[C@@H]1C[C@@H]2O` [PACLITAXEL]: the “growth inhibition (GI)” value in data set [2] is “Active”. The molecule also returned a logP in data set [1] of 2.25.
